Paper PMC11566429 (Genes and Environment, 2024)
Entries after “also recorded” stand apart in the source; their conditions may differ. Read-outs that look alike come from different tables or passages of the source.

Columns and labels:
[1] = system: TA100; assay: Ames test, mutagenic activity in TA100; assay type: cell-based, Salmonella typhimurium; conditions: maximum mutagenic activity
From the text: (§1) The maximum mutagenic activity (rev/mg) was used as an indicator of the magnitude of mutagenicity among those calculated according to the following equation from each representative experiment (main test or confirmatory test) for chemicals that were judged positive: Mutagenic activity (rev/mg) = (number of revertant colonies at each dose—number of revertant colonies for the negative control) / dose (mg).

[2] = system: TA100, TA1535, TA98, TA1537, and WP2uvrA; assay: Ames test (preincubation method), five standard strains, overall judgement; conditions: for Ames test result (in words, text): presence and absence of S9 mix; for Ames test: presence and absence of rat liver S9 mix
Procedure: The S9 mix (0.5 mL) consisted of 0.05 mL of the S9 fraction and 0.45 mL of a cofactor solution (Cofactor-1®; Oriental Yeast Co., Ltd.), and contained 8 mM MgCl2, 33 mM KCl, 5 mM glucose-6-phosphate, 4 mM NADPH, 4 mM NADH and 100 mM sodium phosphate (pH 7.4).
Four strains of Salmonella typhimurium, TA100, TA1535, TA98, and TA1537 and one strain of Escherichia coli, WP2uvrA were used.
Ames test was conducted using the preincubation method. […] For the tests carried out in the absence of S9 mix, 0.1 mL of the negative control (vehicle), test chemical solution at various concentrations, or positive control solution was added to a test tube, to which 0.5 mL of 100 mM sodium phosphate buffer (pH 7.4) and 0.1 mL of bacterial culture were added. For the tests carried out in the presence of the S9 mix, the S9 mix was added instead of the phosphate buffer. After mixing, the test tubes were preincubated at 37 °C for 20 min in a shaking water bath. After completion, the treatment mixture was immediately added and mixed with 2 mL of 0.05 mM L-histidine/0.05 mM biotin/0.05 mM L-tryptophan molten top agar and the content was poured onto a plate of minimal-glucose agar medium (Tesmedia®, Oriental Yeast). The plates were incubated at 37 °C for approximately 48 h and the revertant colonies that appeared were counted. The sign of the bacterial background lawn was examined as an indicator of cytotoxicity. In addition, the presence or absence of precipitates from the test chemicals was evaluated.
Multiple tests (dose-finding, main, or confirmatory tests) were conducted. The dose-finding test for almost all the test chemicals was conducted with TA100 in the presence and absence of the S9 mix in a single plate per dose. The main test was conducted in duplicate with the five strains in the presence and absence of the S9 mix. […] Dimethyl sulfoxide (DMSO) was used as a negative control (vehicle).
Mutagenicity was evaluated according to the so-called “two-fold” rule for TA100, TA98, and WP2uvrA, or “three-fold” rule for TA1535 and TA1537 [19]. […] Historical negative control counts were also considered during the evaluation.

[3] = system: TA98; assay: Ames test, mutagenic activity in TA98; assay type: cell-based, Salmonella typhimurium; conditions: maximum mutagenic activity
From the text: as §1

[4] = system: TA100, TA1535, TA98, TA1537, TA97; conditions: TA100, TA1535, TA98, TA1537, TA97 (± S9) ref 16; cited from earlier work
[5] = system: TA100, TA98; conditions: cited from earlier work
[6] = system: TA1537; assay type: cell-based, Salmonella typhimurium; conditions: TA1537 -S9, maximum mutagenic activity
From the text: as §1

[7] = system: WP2uvrA; assay: Ames test, mutagenic activity in WP2uvrA; assay type: cell-based, Escherichia coli; conditions: maximum mutagenic activity
From the text: as §1

[8] = system: TA100, TA1535, TA98, TA1537, WP2uvrA; conditions: TA100, TA1535, TA98, TA1537, WP2uvrA (± S9) ref 9; cited from earlier work
[9] = system: TA100, TA98, TA102; conditions: TA100, TA98, TA102 (± S9) ref 7; cited from earlier work
[10] = system: TA100, TA1535, TA98, TA1537, TA1538; conditions: presence or absence of S9 mix not clearly indicated ref 7; cited from earlier work

Structure (SMILES): c1cnc2cccnc2c1 [1,5-Naphthyridine]
- Tester strains showing positive (mutagenic activity in rev/mg) ([1]; TA100 +S9): TA100 +S9 (419) rev/mg
- Tester strains showing positive (mutagenic activity in rev/mg) ([1]; TA100 +S9, listed as 1,5-naphthyridine): 419 rev/mg
- Ames test result (in words, text) [2]: only mutagenic in TA100; also recorded: mutagenic only in the presence of the S9 mix
- Ames test ([2]; quinoline analogues): ++ ("mutagenic (100-1000 rev/mg)" in Ames test)

Structure (SMILES): c1cnc2ccncc2c1 [1,6-Naphthyridine]
- Ames test result (in words, text) [2]: not mutagenic

Structure (SMILES): c1cnc2cnccc2c1 [1,7-Naphthyridine]
- Tester strains showing positive (mutagenic activity in rev/mg) ([1]; TA100 +S9): 255 rev/mg
- Tester strains showing positive (mutagenic activity in rev/mg) ([1]; TA100 -S9): 40 rev/mg
- Tester strains showing positive (mutagenic activity in rev/mg) ([3]; TA98 +S9): 24 rev/mg
- Tester strains showing positive (mutagenic activity in rev/mg) ([3]; TA98 -S9): 12 rev/mg
- Ames test result (in words, text) [2]: mutagenic in both TA100 and TA98
- Ames test result (in words, text) ([2]; listed as 1,7-naphthyridine): mutagenic both in the presence and absence of the S9 mix
- Ames test ([2]; quinoline analogues): ++ ("mutagenic (100-1000 rev/mg)" in Ames test)

Structure (SMILES): c1cnc2ncccc2c1 [1,8-Naphthyridine]
- Tester strains showing positive (mutagenic activity in rev/mg) ([1]; TA100 +S9): TA100 +S9 (170) rev/mg
- Tester strains showing positive (mutagenic activity in rev/mg) ([1]; TA100 +S9, listed as 1,8-naphthyridine): 170 rev/mg
- Ames test result (in words, text) [2]: only mutagenic in TA100; also recorded: mutagenic only in the presence of the S9 mix
- Ames test ([2]; quinoline analogues): ++ ("mutagenic (100-1000 rev/mg)" in Ames test)

Structure (SMILES): c1cc2cnccc2cn1 [2,6-Naphthyridine]
- Ames test result (in words, text) [2]: non-mutagenic

Structure (SMILES): c1cc2ccncc2cn1 [2,7-Naphthyridine]
- Ames test result (in words, text) [2]: non-mutagenic

Structure (SMILES): c1cnc2cc[nH]c2c1 [4-Azaindole, 1H-Pyrrolo[3,2-b]pyridine]
- Ames test ([2]; indole analogues): + ("mutagenic (< 100 revertants/mg)" in Ames test)
- Ames test result (in words, text) [2]: mutagenic in the absence of S9 mix with TA1537

Structure (SMILES): c1ncc2[nH]ccc2n1 [5H-Pyrrolo[3,2-d]pyrimidine]
- Ames test result (in words, text) [2]: non-mutagenic

Structure (SMILES): c1ccc2[nH]cnc2c1 [Benzimidazole]
- Ames test result [4]: Non-mutagenic
- Ames test result ([5]; TA100, TA98 (-S9) ref 14): Non-mutagenic
- Ames test result (in words, text) [2]: not mutagenic

Structure (SMILES): c1ccc2nnccc2c1 [Cinnoline]
- Tester strains showing positive (mutagenic activity in rev/mg) [6]: TA1537 -S9 (13) rev/mg
- Tester strains showing positive (mutagenic activity in rev/mg) ([6]; listed as cinnoline): 13 rev/mg
- Ames test result (in words, text) [2]: mutagenic in TA1537; also recorded: mutagenic only in the absence of the S9 mix
- Ames test result (in words, text) ([2]; listed as cinnoline): mutagenic in the absence of S9 mix with TA1537
- Ames test ([2]; quinoline analogues): + ("mutagenic (< 100 revertants/mg)" in Ames test)

Structure (SMILES): c1ccc2[nH]ncc2c1 [Indazole]
- Ames test result ([5]; TA100, TA98 (-S9) ref 14): Non-mutagenic
- Tester strains showing positive (mutagenic activity in rev/mg) ([7]; WP2uvrA +S9): 38 rev/mg
- Tester strains showing positive (mutagenic activity in rev/mg) ([7]; WP2uvrA -S9): 40 rev/mg
- Ames test ([2]; indole analogues): + ("mutagenic (< 100 revertants/mg)" in Ames test)
- Ames test result (in words, text) [2]: mutagenic in the presence and absence of S9 mix with WP2uvrA

Structure (SMILES): c1ccc2cnccc2c1 [Isoquinoline]
- Ames test result ([5]; TA100, TA98 (± S9) ref 10): Non-mutagenic
- Ames test result (in words, text) [2]: non-mutagenic

Structure (SMILES): c1ccc2cnncc2c1 [Phthalazine]
- Ames test result ([5]; TA100, TA98 (± S9) ref 11): Non-mutagenic
- Ames test result (in words, text) [2]: non-mutagenic

Structure (SMILES): c1cnc2[nH]ncc2c1 [Pyrazolo[3,4-b]pyridine]
- Ames test result (in words, text) [2]: non-mutagenic

Structure (SMILES): c1ccc2ncncc2c1 [Quinazoline]
- Ames test result (in words, text) [2]: non-mutagenic

Structure (SMILES): c1ccc2ncccc2c1 [Quinoline]
- Ames test result (in words, text) [2]: only mutagenic in TA100; also recorded: mutagenic only in the presence of the S9 mix
- Ames test ([2]; quinoline analogues): +++ ("mutagenic (>1000 revertants/mg)" in Ames test)
- Ames test result [8]: Mutagenic (+ S9) in TA100, TA98, WP2uvrA

Structure (SMILES): c1ccc2nccnc2c1 [Quinoxaline]
- Ames test result (in words, text) [2]: non-mutagenic
- Ames test result [9]: Mutagenic (+ S9) in TA98
- Ames test result [10]: Non-mutagenic
